Results as given in patent US8501762B2, “Tetrahydroprotoberberine compounds, the synthetic method and the use thereof” (Shanghai Institute of Materia Medica, Chinese Academy of …, priority 2005, dated 2013).
Where a name gives a salt, the structure may show the parent alone.

Key:
dopamine D2 receptor = dopamine D2 receptor (Homo sapiens, UniProt P14416); experiment: Dopamine receptor competitive binding, D2; conditions: for inhibition at 10 µM / Inhibition(%) for D2: tested at 1 × 10^−5 mol/L; for Ki: calculated from the inhibition data
Procedure: (§1) 1. Dopamine Receptor Binding Studies
The affinities of these compounds on dopamine receptors were evaluated with competitive receptor binding assays (Acta Pharmacol Sin, 1989, 10:104 and Acta Pharmacol Sin, 2003, 24(3): 225-229). The Ki is calculated according the inhibition data tested.

dopamine D1 receptor = dopamine D1 receptor (Homo sapiens, UniProt P21728); experiment: Dopamine receptor competitive binding, D1; conditions: for inhibition at 10 µM / Inhibition(%) for D1: tested at 1 × 10^−5 mol/L; for Ki: calculated from the inhibition data
Procedure: as §1
The Ki is calculated according the inhibition data tested.

mice = experiment: PCP-induced immobility test in mice; format: in vivo; conditions: 20 mg/kg (i.g.), PCP-treated mice; PCP group 78.1±28 s, P<0.05
Procedure: 3. PCP-Induced Immobility Test in Mice
Phencyclidine(PCP)-induced immobility test in mice was selected as the model to evaluate the antipsychotic effect of some compounds of the present invention (Br J Pharmacol, 1995, 116: 2531-2537). The dose is selected according the ED50 of l-CSLMS. Given PCP, immobility times of mice was increased, whereas the active compound can decrease the immobility time. At 20 mg/kg (i.g.), the immobility time of compound of example 47 is 54.9±19 s, and the immobility time of l-CSLMS is 48.0±27 s, which has statistically significant differences (P<0.05) compared to PCP group (78.1±28 s).

6-OHDA-lesioned rats = 6-OHDA-lesioned rats rotation test; format: in vivo; conditions: 10 mg/kg
Procedure: 2. 6-OHDA-Lesioned Rats Rotation Test
Some of the compounds were evaluated on 6-OHDA-lesioned rats model.

[1] = preliminary clinic studies, cited from earlier work

Sequence of dopamine D1 receptor (P21728 whole entry): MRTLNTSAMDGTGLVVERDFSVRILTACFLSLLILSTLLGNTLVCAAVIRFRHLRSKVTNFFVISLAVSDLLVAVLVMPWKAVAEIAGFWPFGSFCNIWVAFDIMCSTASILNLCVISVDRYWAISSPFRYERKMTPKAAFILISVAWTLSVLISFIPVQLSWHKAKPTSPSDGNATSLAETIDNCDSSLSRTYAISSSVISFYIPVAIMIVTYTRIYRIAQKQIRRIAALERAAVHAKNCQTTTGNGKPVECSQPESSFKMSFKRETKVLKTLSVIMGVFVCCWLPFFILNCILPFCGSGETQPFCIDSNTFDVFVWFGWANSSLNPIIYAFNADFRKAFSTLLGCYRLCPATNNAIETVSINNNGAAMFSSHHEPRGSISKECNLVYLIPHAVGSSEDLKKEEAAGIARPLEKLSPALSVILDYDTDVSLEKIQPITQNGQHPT
Sequence of dopamine D2 receptor (P14416 whole entry, species assumed): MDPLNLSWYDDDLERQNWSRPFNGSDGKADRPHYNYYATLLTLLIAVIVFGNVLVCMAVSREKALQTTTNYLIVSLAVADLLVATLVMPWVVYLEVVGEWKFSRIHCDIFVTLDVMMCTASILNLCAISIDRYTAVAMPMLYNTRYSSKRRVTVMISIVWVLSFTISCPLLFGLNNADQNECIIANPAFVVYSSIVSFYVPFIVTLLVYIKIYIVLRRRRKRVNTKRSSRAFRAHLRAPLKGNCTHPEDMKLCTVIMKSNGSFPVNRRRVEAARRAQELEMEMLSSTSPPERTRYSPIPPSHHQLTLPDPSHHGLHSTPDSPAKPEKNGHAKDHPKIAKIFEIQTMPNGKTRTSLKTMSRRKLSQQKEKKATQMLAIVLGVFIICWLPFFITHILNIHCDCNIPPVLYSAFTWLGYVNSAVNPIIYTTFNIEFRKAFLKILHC

**Q.** For `COc1cc2c(cc1OC(C)=O)C1Cc3c(Cl)cc(OC)c(OC(C)=O)c3CN1CC2` (single isomer, unassigned; (-)) [Example 47, (−)-2,9-diacetoxy-3,10-dimethoxy-12-chloro-5,8,13,13a-tetrahydro-6H-dibenzo[a,g]quinolizine], which inhibition at 10 µM (dopamine D2 receptor) is on record?
**A.** 77.4%

**Q.** And the inhibition at 10 µM (dopamine D1 receptor)?
**A.** 100%

**Q.** And the immobility time (mice)?
**A.** 54.9 ± 19 s

**Q.** For `COc1cc2c(cc1OC(C)=O)C1Cc3ccc(OC(C)=O)c(OC)c3CN1CC2` (single isomer, unassigned; (-)) [Example 48, (−)-2,10-diacetoxy-3,9-dimethoxy-5,8,13,13a-tetrahydro-6H-dibenzo[a,g]quinolizine], which “effect in 6-OHDA-lesioned rats model” value (6-OHDA-lesioned rats) is on record?
**A.** positive effects

**Q.** With `COc1cc2c(cc1O)C1Cc3c(Cl)cc(OC)c(OC(C)=O)c3CN1CC2` (single isomer, unassigned; (-)) [Example 50, (−)-2-hydroxy-3,10-dimethoxy-9-acetoxy-12-chloro-5,8,13,13a-tetrahydro-6H-dibenzo[a,g]quinolizine] as the molecule, how does the “Inhibition(%) for D2” value (dopamine D2 receptor) read?
**A.** 58.5%

**Q.** And the inhibition at 10 µM (dopamine D1 receptor)?
**A.** 100%

**Q.** For `COc1cc2c(cc1O)C1Cc3c(Cl)cc(OC)c(O)c3CN1CC2` (stereo not drawn) [CSL, 2,9-dihydroxy-3,10-dimethoxy-12-chloro-5,8,13,13a-tetrahydro-6H-dibenzo[a,g]quinolizine, reference compound], which Ki (dopamine D1 receptor) is on record?
**A.** 6.1 ± 3 nM

**Q.** With `COc1cc2c(cc1O)C1Cc3c(Cl)cc(OC)c(OC(C)=O)c3CN1CC2` (stereo not drawn) [Example 7, 2-hydroxy-3,10-dimethoxy-9-acetoxy-12-chloro-5,8,13,13a-tetrahydro-6H-dibenzo[a,g]quinolizine] as the molecule, how does the Ki (dopamine D2 receptor) read?
**A.** 6900 ± 1500 nM

**Q.** And the “Inhibition(%) for D2” value (dopamine D2 receptor)?
**A.** 100.0%

**Q.** What about the “effect in 6-OHDA-lesioned rats model” value (6-OHDA-lesioned rats) of the same molecule?
**A.** positive effects

**Q.** What about the Ki (dopamine D1 receptor) of the same molecule?
**A.** 10.7 ± 1 nM

**Q.** And the “Inhibition(%) for D1” value (dopamine D1 receptor)?
**A.** 100%

**Q.** For `CC(=O)O.COc1cc2c(cc1OC(C)=O)C1Cc3c(Cl)cc(OC)c(OC(C)=O)c3CN1CC2` (stereo not drawn) [Example 8, 2,9-diacetoxy-3,10-dimethoxy-12-chloro-5,8,13,13a-tetrahydro-6H-dibenzo[a,g]quinolizine acetate], which “Inhibition(%) for D2” value (dopamine D2 receptor) is on record?
**A.** 93.8%

**Q.** What about the “Inhibition(%) for D1” value (dopamine D1 receptor) of the same molecule?
**A.** 100.0%

**Q.** With `COc1cc2c(cc1O)C1Cc3c(Cl)cc(OC)c(OCCO)c3CN1CC2` (stereo not drawn) [Example 17, 2-hydroxy-3,10-dimethoxy-9-(2-hydroxy-ethoxy)-12-chloro-5,8,13,13a-tetrahydro-6H-dibenzo[a,g]quinolizine] as the molecule, how does the inhibition at 10 µM (dopamine D2 receptor) read?
**A.** 57.4%

**Q.** What about the inhibition at 10 µM (dopamine D1 receptor) of the same molecule?
**A.** 97.9%

**Q.** For `COc1cc2c(cc1OCc1ccccc1)C1Cc3c(Cl)cc(OC)c(OCCOCCO)c3CN1CC2` (stereo not drawn) [Example 18, 2-benzyloxy-3,10-dimethoxy-9-[2-(2-hydroxy-ethoxy)-ethoxy]-12-chloro-5,8,13,13a-tetrahydro-6H-dibenzo[a,g]quinolizine], which melting point is on record?
**A.** 122 °C

**Q.** Which results are given for `CCOC(=O)Oc1c(OC)cc(Cl)c2c1CN1CCc3cc(OC)c(O)cc3C1C2` (stereo not drawn) [Example 21, 2-hydroxy-3,10-dimethoxy-9-ethoxycarbonyloxy-12-chloro-5,8,13,13a-tetrahydro-6H-dibenzo[a,g]quinolizine]?
**A.** inhibition at 10 µM (dopamine D2 receptor): 100%; Ki (dopamine D1 receptor): 2.6 ± 0.7 nM; inhibition at 10 µM (dopamine D1 receptor): 100%

**Q.** Which inhibition at 10 µM (dopamine D2 receptor) does the source give for `COc1cc2c(cc1OCc1ccccc1)C1Cc3c(Cl)cc(OC)c(OC(=O)[C@@H](N)Cc4ccccc4)c3CN1CC2` (stereo partly drawn) [Example 23, 2-benzyloxy-3,10-dimethoxy-9-phenylalanyloxy-12-chloro-5,8,13,13a-tetrahydro-6H-dibenzo[a,g]quinolizine] here?
**A.** 44%

**Q.** What about the inhibition at 10 µM (dopamine D1 receptor) of the same molecule?
**A.** 77.5%

**Q.** For `COc1cc2c(cc1OC(C)=O)C1Cc3ccc(OC)c(OC(C)=O)c3CN1CC2` (stereo not drawn) [Example 34, 2,9-diacetoxy-3,10-dimethoxy-5,8,13,13a-tetrahydro-6H-dibenzo[a,g]quinolizine], which Ki (dopamine D2 receptor) is on record?
**A.** 10600 ± 2600 nM

**Q.** And the inhibition at 10 µM (dopamine D2 receptor)?
**A.** 90.7%

**Q.** And the Ki (dopamine D1 receptor)?
**A.** 51.8 ± 32.2 nM

**Q.** And the inhibition at 10 µM (dopamine D1 receptor)?
**A.** 99.4%

**Q.** For `COCCOCCOCC(=O)Oc1cc2c(cc1OC)CCN1Cc3c(c(Cl)cc(OC)c3OC(=O)COCCOCCOC)CC21` (stereo not drawn) [Example 42, 2,9-bis-{2-[2-(2-methoxy-ethoxy)-ethoxy]-acetoxy-}3,10-dimethoxy-12-chloro-5,8,13,13a-tetrahydro-6H-dibenzo[a,g]quinolizine], which Ki (dopamine D2 receptor) is on record?
**A.** 14900 ± 200 nM

**Q.** What about the inhibition at 10 µM (dopamine D2 receptor) of the same molecule?
**A.** 39.7%

**Q.** And the Ki (dopamine D1 receptor)?
**A.** 35.4 ± 4.4 nM

**Q.** And the inhibition at 10 µM (dopamine D1 receptor)?
**A.** 96.2%

**Q.** With `COCCOCCOCC(=O)Oc1c(OC)cc(Cl)c2c1CN1CCc3cc(OC)c(O)cc3C1C2` (stereo not drawn) [Example 43, 2-hydroxy-3,10-dimethoxy-9-{2-[2-(2-methoxy-ethoxy)-ethoxy]-acetoxy-}-12-chloro-5,8,13,13a-tetrahydro-6H-dibenzo[a,g]quinolizine] as the molecule, how does the Ki (dopamine D1 receptor) read?
**A.** 404 ± 188 nM

**Q.** For `Oc1cc2c(cc1O)C1Cc3c(Cl)cc(O)c(O)c3CN1CC2` (stereo not drawn) [Example 44, 2,3,9,10-tetrahydroxy-12-chloro-5,8,13,13a-tetrahydro-6H-dibenzo[a,g]quinolizine], which inhibition at 10 µM (dopamine D2 receptor) is on record?
**A.** 93.3%

**Q.** And the “effect in 6-OHDA-lesioned rats model” value (6-OHDA-lesioned rats)?
**A.** positive effects

**Q.** What about the inhibition at 10 µM (dopamine D1 receptor) of the same molecule?
**A.** 100%

**Q.** For `COc1cc(F)c2c(c1OC)CN1CCc3cc4c(cc3C1C2)OCO4` (stereo not drawn) [Example 63, 2,3-methylenedioxyl-9,10-dimethoxy-12-fluoro-5,8,13,13a-tetrahydro-6H-dibenzo[a,g]quinolizine], which “Inhibition(%) for D1” value (dopamine D1 receptor) is on record?
**A.** 95.2%

**Q.** With `COc1cc2c(cc1O)[C@@H]1Cc3c(Cl)cc(OC)c(O)c3CN1CC2` [l-CSLMS, S-chloroscoulerine mesylate, reference compound] as the molecule, how does the Ki (dopamine D2 receptor) read?
**A.** 1700 ± 500 nM

**Q.** What about the immobility time (mice) of the same molecule?
**A.** 48.0 ± 27 s

**Q.** For `COc1cc2c(cc1O)[C@@H]1Cc3ccc(O)c(OC)c3CN1CC2` [l-SPD, l-Stepholidine], which side effects ([1]; schizophrenia) is on record?
**A.** few side effects

**Q.** And the “activity in the treatment of schizophrenia” value [1]?
**A.** favorable activity
